In PubChem BioAssay AID1963834 (Molecular Pharmacology Branch, DTP, NCI, 2024):

Tested on: 873145-292-R-J1-PDC complex spheroid viability
Experiment: Anticancer human tumor 873145-292-R-J1-PDC patient-derived renal clear cell carcinoma cell line growth inhibition [POLQ]
Conditions: for IC50: curve of first compound; for viability, T/C: stronger effect = lower value; active means viability on the fitted dose curve at most 10% of control; inactive means the rest
Description: Multicellular complex tumor spheroid response to Polymerase (POL) inhibitors (novobiocin, ART-558, RP6685) in combination with a variety of drugs and investigational agents in selected tumor cell lines
The POL inhibitors (novobiocin, ART-558, and RP6685) were evaluated both individually and in combination with standard of care and investigational anticancer small molecules within a complex spheroid model of solid tumors. . Complex spheroids include a stromal component modeled by human endothelial cells (HUVEC) and fibroblasts modeled by human mesenchymal stem cells (MSCs). The concentration ranges selected for each drug and investigational agent were based upon clinically achievable concentrations if the clinical Cmax of the agent was known.
Compounds. The drugs and investigational agents: novobiocin (NSC847541), ART-558 (NSC835418), RP-6685 (NSC848927), peposertib (NSC802822), ceralasertib (NSC780249), elimusertib (NSC800525), camonsertib (NSC841442), AZD-1390 (NSC803789), olaparib (NSC753686), talazoparib (NSC767125), rucaparib (NSC756644), sotorasib (NSC818433), MRTX-1133 (NSC836407), SN-38 (NSC673596), topotecan (NSC609699), epotoside (NSC141540), doxorubicin (NSC123127), gemcitabine (NSC613327), 5-fluorouracil (NSC19893), paclitaxel (NSC125973), vemurafenib (NSC761431), MSA-2 (NSC828583), SN-011 (NSC837082), adavosertib (NSC754352), prexasertib (NSC758257), carboplatin (NSC241240) and oxaliplatin (NSC266046), were obtained from the National Cancer Institute (NCI) Developmental Therapeutics Program Chemical Repository (21). The FDA-approved anticancer drug set is available from the Developmental Therapeutics Program at https://dtp.cancer.gov/organization/dscb/obtaining/. […] The stock solutions were prepared in dimethyl sulfoxide (DMSO, Sigma-Aldrich, St. Louis, MO, cat. D2650), except for the platinum compounds which were prepared in saline (Quality Biological, Gaithersburg, MD, cat. 114-055-101), at 800-fold the tested concentration and stored at -70 degrees C prior to their use. All drugs and investigational agents were tested over a range starting from a high concentration at or near the clinical Cmax and decreasing in half-log increments. If the clinical Cmax for an agent had not been determined, the highest concentration tested was 10 microM, except for SN-38, which was tested at a high concentration of 1 microM.
Cell Culture. All cells were maintained in an incubator at 37 degrees C and 5% CO2 with 95% humidity. The PDC lines were cultured according to standard operating procedures established by the NCI PDMR (https://pdmr.cancer.gov). Table 3 of the manuscript, lists the cell lines along with the number of the three cell types plated to form the mct-spheroids and media for tumor cell growth. After thawing, all PDC lines, except 997537-175-T-J1-PDC and 415267-285-R-J2-PDC, were cultured in Matrigel-coated flasks prepared with a working solution of 1X Ham's F-12 nutrient mix, without supplementation (Thermo Fisher Scientific, cat. 11765054), 100 U/mL penicillin-streptomycin (Thermo Fisher Scientific, cat. 15140122), and 2.5% Matrigel (Corning Inc., Corning, NY, cat. 354248) for the first three passages. The two PDC lines 997537-175-T-J1-PDC and 415267-285-R-J2-PDC were cultured on uncoated flasks. The 857933-349-R-J2-PDC line was cultured in 6C/Colon 1B media containing advanced DMEM/F-12 (Thermo Fisher Scientific, cat. 12634028), 10 mM HEPES (Thermo Fisher Scientific, cat. 15630080), 1X GlutaMAX supplement (Thermo Fisher Scientific, cat. 35050061), 0.1 mg/mL primocin (InvivoGen, San Diego, CA, cat. ant-pm-2), 10% defined fetal bovine serum, heat inactivated (HyClone Laboratories Inc., Logan, UT, cat. SH30070.03HI), 50% L-WRN conditioned media (ATCC, cat. CRL-3276), 1.25 mM N-Acetyl-L-cysteine (Sigma-Aldrich, cat. A9165), 10 mM nicotinamide (Sigma-Aldrich, cat. N0636), 1X B-27 supplement (Thermo Fisher Scientific, cat. 17504044), 1X N-2 supplement (Thermo Fisher Scientific, cat. […]

[1] = second compound 0.0316 µM, first compound 0.0316 µM
[2] = second compound 0.0316 µM, first compound 0.1 µM
[3] = second compound 0.0316 µM, first compound 0.316 µM
[4] = second compound 0.0316 µM, first compound 1 µM
[5] = second compound 0.0316 µM, first compound 3.16 µM
[6] = second compound 0.0316 µM, first compound 10 µM
[7] = second compound 0.1 µM, first compound 0.0316 µM
[8] = second compound 0.1 µM, first compound 0.1 µM
[9] = second compound 0.1 µM, first compound 0.316 µM
[10] = second compound 0.1 µM, first compound 1 µM
[11] = second compound 0.1 µM, first compound 3.16 µM
[12] = second compound 0.1 µM, first compound 10 µM
[13] = second compound 0.316 µM, first compound 0.0316 µM
[14] = second compound 0.316 µM, first compound 0.1 µM
[15] = second compound 0.316 µM, first compound 0.316 µM
[16] = second compound 0.316 µM, first compound 1 µM
[17] = second compound 0.316 µM, first compound 3.16 µM
[18] = second compound 0.316 µM, first compound 10 µM
[19] = second compound 1 µM, first compound 0.0316 µM
[20] = second compound 1 µM, first compound 0.1 µM
[21] = second compound 1 µM, first compound 0.316 µM
[22] = second compound 1 µM, first compound 1 µM
[23] = second compound 1 µM, first compound 3.16 µM
[24] = second compound 1 µM, first compound 10 µM
[25] = second compound 3.16 µM, first compound 0.0316 µM
[26] = second compound 3.16 µM, first compound 0.1 µM
[27] = second compound 3.16 µM, first compound 0.316 µM
[28] = second compound 3.16 µM, first compound 1 µM
[29] = second compound 3.16 µM, first compound 3.16 µM
[30] = second compound 3.16 µM, first compound 10 µM
[31] = second compound 10 µM, first compound 0.0316 µM
[32] = second compound 10 µM, first compound 0.1 µM
[33] = second compound 10 µM, first compound 0.316 µM
[34] = second compound 10 µM, first compound 1 µM
[35] = second compound 10 µM, first compound 3.16 µM
[36] = second compound 10 µM, first compound 10 µM
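Further: spheroids exposed to compounds for 7 days before viability readout.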
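Wherever viability, T/C is given: luminescence signal used as surrogate for viable cell content.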

Nc1ccn(C2OC(CO)C(O)C2(F)F)c(=O)n1 (stereo unspecified) + Cc1cccc(N(C)C(=O)C2C(O)CCN2c2nc(C)cc(C(F)(F)F)c2C#N)c1
4.94 µM: IC50 (second compound 0.316 µM)
inactive: viability, T/C [1] 67.6% | viability, T/C [2] 58.3% | viability, T/C [3] 51.4% | viability, T/C [4] 53.3% | viability, T/C [5] 53.5% | viability, T/C [6] 52.6% | viability, T/C [7] 82.3% | viability, T/C [8] 68.8% | viability, T/C [9] 51.8% | viability, T/C [10] 59.8% | viability, T/C [11] 55% | viability, T/C [12] 56.1% | viability, T/C [13] 62% | viability, T/C [14] 63.5% | viability, T/C [15] 54.6% | viability, T/C [16] 58.9% | viability, T/C [17] 54.9% | viability, T/C [18] 43.8% | viability, T/C [19] 66.9% | viability, T/C [20] 52.5% | viability, T/C [21] 52.3% | viability, T/C [22] 49.6% | viability, T/C [23] 53.1% | viability, T/C [24] 50.3% | viability, T/C [25] 72.3% | viability, T/C [26] 63.8% | viability, T/C [27] 55.4% | viability, T/C [28] 55.4% | viability, T/C [29] 56.1% | viability, T/C [30] 45.1% | viability, T/C [31] 69.2% | viability, T/C [32] 63.4% | viability, T/C [33] 62.9% | viability, T/C [34] 58.5% | viability, T/C [35] 59.7% | viability, T/C [36] 58.8%
9.95 µM: IC50 (second compound 0.0316 µM)
5.41 µM: IC50 (second compound 3.16 µM)
> 10 µM: IC50 (second compound 0.1 µM) | IC50 (second compound 1 µM) | IC50 (second compound 10 µM)

COc1cccc2c1C(=O)c1c(O)c3c(c(O)c1C2=O)CC(O)(C(=O)CO)CC3OC1CC(N)C(O)C(C)O1 (stereo unspecified) + Nc1ccc(C#CCN(C(=O)Cc2ncc(C(F)(F)F)cc2C(F)(F)F)c2ccc(F)cc2)nn1
0.877 µM: IC50 (second compound 10 µM)
1.64 µM: IC50 (second compound 0.1 µM)
inactive: viability, T/C [1] 100% | viability, T/C [2] 86.6% | viability, T/C [3] 95.9% | viability, T/C [4] 81.7% | viability, T/C [7] 113% | viability, T/C [8] 93.3% | viability, T/C [9] 85.1% | viability, T/C [10] 84.7% | viability, T/C [13] 98.9% | viability, T/C [14] 91.9% | viability, T/C [15] 84.3% | viability, T/C [16] 83% | viability, T/C [19] 99.1% | viability, T/C [20] 85.7% | viability, T/C [21] 84.5% | viability, T/C [22] 86.2% | viability, T/C [25] 92.4% | viability, T/C [26] 93.9% | viability, T/C [27] 99% | viability, T/C [28] 61.4% | viability, T/C [31] 106% | viability, T/C [32] 97.5% | viability, T/C [33] 111% | viability, T/C [34] 42.9%
1.25 µM: IC50 (second compound 3.16 µM)
1.62 µM: IC50 (second compound 0.316 µM)
1.66 µM: IC50 (second compound 1 µM)
active: viability, T/C [5] 3.57% | viability, T/C [6] 1.97% | viability, T/C [11] 3.75% | viability, T/C [12] 2.69% | viability, T/C [17] 4.08% | viability, T/C [18] 2.88% | viability, T/C [23] 3.81% | viability, T/C [24] 3.33% | viability, T/C [29] 1.38% | viability, T/C [30] 2.89% | viability, T/C [35] 1.14% | viability, T/C [36] 2.84%
1.6 µM: IC50 (second compound 0.0316 µM)

O=C(c1cc(Cc2n[nH]c(=O)c3ccccc23)ccc1F)N1CCN(C(=O)C2CC2)CC1 + Nc1ccc(C#CCN(C(=O)Cc2ncc(C(F)(F)F)cc2C(F)(F)F)c2ccc(F)cc2)nn1
> 10 µM: IC50 (second compound 0.0316 µM) | IC50 (second compound 0.1 µM) | IC50 (second compound 0.316 µM) | IC50 (second compound 1 µM) | IC50 (second compound 3.16 µM) | IC50 (second compound 10 µM)
inactive: viability, T/C [1] 98.5% | viability, T/C [2] 110% | viability, T/C [3] 101% | viability, T/C [4] 106% | viability, T/C [5] 107% | viability, T/C [6] 108% | viability, T/C [7] 112% | viability, T/C [8] 118% | viability, T/C [9] 103% | viability, T/C [10] 102% | viability, T/C [11] 98.1% | viability, T/C [12] 96.2% | viability, T/C [13] 96.4% | viability, T/C [14] 114% | viability, T/C [15] 114% | viability, T/C [16] 105% | viability, T/C [17] 93.8% | viability, T/C [18] 103% | viability, T/C [19] 98.4% | viability, T/C [20] 105% | viability, T/C [21] 114% | viability, T/C [22] 117% | viability, T/C [23] 104% | viability, T/C [24] 88.6% | viability, T/C [25] 104% | viability, T/C [26] 114% | viability, T/C [27] 115% | viability, T/C [28] 110% | viability, T/C [29] 96.2% | viability, T/C [30] 104% | viability, T/C [31] 101% | viability, T/C [32] 105% | viability, T/C [33] 106% | viability, T/C [34] 109% | viability, T/C [35] 100% | viability, T/C [36] 101%
